Read-outs that look alike come from different tables or passages of the source.
Tests used:
[1] = system: LoVo (human colorectal adenocarcinoma) cell line; assay: MTS cytotoxicity assay, LoVo cell line; type: cell-based; conditions: 48 h of incubation
Description: (§1) LoVo, MDA-MB-231 and HUVEC human cell lines were purchased from American Type Culture Collection (ATCC). Cells were routinely maintained in culture either in culture flasks or seeded in plates, using Dulbecco’s modified Eagle medium/nutrient mixture F-12 (DMEM:F12) medium supplemented with […], 10% fetal calf serum (Sigma Aldrich, St. Louis, MO, USA), 100 units/mL penicillin, 100 μg/mL streptomycin and incubated at 37 °C in 5% CO2 humidified atmosphere.
(§2) Cytotoxicity studies were performed in 96-well microtiter plates with flat bottoms (Falcon, Teterboro, NJ, USA) using the CellTiter 96 Aqueous One Solution Cell Proliferation Assay (Promega, Madison, WI, USA), an MTS-based colorimetric assay. Metabolically active cells have the ability to reduce MTS [3-(4,5-dimethylthiazol-2-yl)-5-(3-carboxymethoxyphenyl)-2-(4-sulfophenyl)-2H-tetrazolium, inner salt], a yellow tetrazolium salt, to a colored formazan that is soluble in the culture medium. Briefly, 15 × 10^3 cells per well were cultured in 100 µL culture medium. After 24 h, adherent cells were treated with different concentrations of the studied compounds, as well as adriamycin (Adr) and cisplatin (Cis-Pt), used as positive controls for 24 h and 48 h, respectively. Each well was then filled with 20 µL of reagent containing MTS and PES (phenazine ethosulfate, a cationic dye with excellent chemical stability that binds to MTS and produces a stable solution). The resulting formazan was determined using a Tecan GENios Spectrophotometer (Tecan US, Durham, NC, USA) by measuring the absorbance at λ = 492 nm after incubation for 4 h at 37 °C with moderate agitation every 15 min. The cytotoxicity tests were performed in triplicate, with results reported as mean values with standard deviations (SD). The cytotoxicity of DMSO was also investigated under the same conditions, and no harmful effect was found at doses less than 1%.
(§3) Data were expressed as cell viability by comparing with untreated cells considered 100% viable, using the following formula:(1) Cell viability (%)=absorbance of treated cells−absorbance of culture medium/absorbance of untreated cells−absorbance of culture medium

[2] = biological target: T1, human serum albumin (HSA) (Homo sapiens, UniProt P02768); assay: HSA fluorescence quenching binding study; conditions: for Ka (association binding constant), HSA / n1 (Number of Binding Sites), HSA / n2 (Hill Coefficient), HSA / Kd / fa (fraction of fluorophore accessible to the quencher), HSA / Ksv* (Stern–Volmer quenching constant), HSA / quenching effect on HSA fluorescence peak: HSA 2.5 µM; for Ka (association binding constant), HSA / n1 (Number of Binding Sites), HSA / n2 (Hill Coefficient), HSA / Kd / fa (fraction of fluorophore accessible to the quencher), HSA / Kq (bimolecular quenching constant), HSA: 298 K; for fa (fraction of fluorophore accessible to the quencher), HSA / Ksv* (Stern–Volmer quenching constant), HSA: compound 0–8 µM; for Ksv* (Stern–Volmer quenching constant), HSA: Tris-HCl pH 7.4, 298 K; for quenching effect on HSA fluorescence peak: compound up to 8 µM; for Kq (bimolecular quenching constant), HSA: from Ksv* with τ0 = 10^−8 s
T1 construct: purchased Sigma-Aldrich Chemical Co. (Schnelldorf, Germany)
Description: (§4) Using a Jasco FP 6500 spectrofluorometer (Jasco, Tokyo, Japan) and quartz cells with a 1 cm path length, the fluorescence spectra of HSA and apo-Tf were recorded in the presence and absence of the examined substances. The 2.5 mL samples containing 2.5 µM HSA or 1 µM apo-Tf were titrated by adding 5 µL of the tested substance at a time, a volume that corresponded to a 1 µM increase in concentration. The concentration range used for these experiments varied from 0 to 8 µM. The relevant spectra were collected in the emission domains of 300–500 nm (HSA) and 305–500 nm (apo-Tf) after 3 min of continuous stirring at room temperature, using excitation wavelengths of 280 nm (HSA) and 295 nm (apo-Tf).
(§5) Experiments were conducted in a pH = 7.4 Tris-HCl buffer (5 mM Tris-HCl/50 mM NaCl for HSA and 5 mM Tris-HCl/50 mM NaCl/25 mM NaHCO3 for apo-Tf).
(§6) The following modified Stern–Volmer equation has been used to calculate the Stern–Volmer constant, which will be denoted as KSV* in order to differentiate it from the Stern–Volmer constant calculated for the DNA binding experiments:(5) F0/F0−F=1/faKsv*[Q]+1/fa where F0 and F are the fluorescence intensities in the absence and presence of the tested compounds, fa is the fraction of fluorophore accessible to the quencher (the tested compounds), [Q] is the quencher concentration, and KSV* (M^−1) is the Stern–Volmer constant; the plot of F0/(F0 − F) against 1/[Q] yields KSV as the slope and fa as the y intercept.
(§7) Subsequently, the bimolecular quenching rate constant was obtained by using Equation (6):(6) Ksv^*=Kqτ0
(§8) Kq (M^−1·s^−1) is the bimolecular quenching rate constant and τ0 is the fluorophore’s lifespan in the absence of the investigated chemicals (10^−8 s). The value of Kq can be used to assess whether the quenching phenomena have an underlying static or dynamic mechanism.
(§9) Using the following equation, the affinity constant (Ka) and the number of binding sites (n) have been calculated: (7) lgF0−F/F=lgKa+nlg[Q]
(§10) The binding affinity, Kd, can be calculated using the quadratic function below:(8) F0−F/F0−Fb=[P]t+[Q]+Kd−([P]t+[Q]+Kd)^2−4[P]t[Q]/2[P]t where F and F0 are the fluorescence intensities of the protein in the presence and absence of the quencher, respectively, Fb is the fluorescence of a fully bound protein–quencher, [P]t is the total concentration of the protein, and [Q] is the concentration of the added quencher. Each binding isotherm was plotted against the total quencher concentration in solution as a function of bound to free protein (F/F0).
(§11) The isotherms were then fitted using the nonlinear regression function below:(9) F/F0= F1+(F2−F1)Kdn/Kdn+[Q]^n where n represents the Hill coefficient, F1 and F2 are the horizontal and vertical asymptotes, respectively. The Kd in Equation (9) is derived from the quadratic binding function (Equation (8)).
(§12) Data were collected in triplicate, averaged, and expressed as mean value ± standard deviation (SD). All graph fitting models were defined and built using OriginPro® 2018.

[3] = system: HUVEC (human umbilical vein endothelial cells); assay: MTS cytotoxicity assay, HUVEC normal cell line; type: cell-based; conditions: 24 h of incubation
Description: as §1, §2, §3

EB–DNA system (CT-DNA) = assay: Competitive binding assay with ethidium bromide (EB) through fluorescence spectroscopy; parameters: species or system calf; conditions: EB 2 µM, CT-DNA 10 µM, compound 0–40 µM
Description: The fluorescence spectra were recorded using 1.6 mL samples containing 10 µM CT-DNA, 2 µM EB, and increasing amounts (0–40 µM with an increment of 5 µM) of tested compounds; the samples were prepared by keeping the components in contact for 10 min at room temperature, under continuous stirring and in the dark. The excitation wavelength was 500 nm, and the spectra were recorded between the wavelengths of 520 and 800 nm. A Jasco FP 6500 fluorometer and quartz cells with a 1 cm route length were employed. The classical Stern–Volmer equation (Equation (3)) was used to interpret the obtained data:(3) F0/F=1+KSV·[Q] F0 and F are the fluorescence intensities of the EB–DNA samples in the absence and presence of the tested compounds, respectively; KSV is the Stern–Volmer constant, which was computed as the slope from the plot of F0/F vs. [Q], where [Q] is the chemical concentration.
The binding ratio was plotted against the logarithm of the concentration in comparison with a control sample exposed solely to DMSO. (4) y=A1+(A2−A1)×x^n/K50^n+x^n
For fitting data points, the modified Hill function with offset (Origin®) was used: where y represents the binding ratio (F/F0), x represents the concentration, A1 represents the minimum of y values, A2 represents the maximum of y values, K50 represents the concentration corresponding to 50% binding or the half maximum binding constant, and n represents the Hill coefficient.

apotransferrin (apo-Tf) = biological target: T2, apotransferrin (apo-Tf) (Homo sapiens, UniProt P02787); assay: Apo-Tf fluorescence quenching binding study; conditions: for Ka (association binding constant), Apo-Tf / n1 (Number of Binding Sites), Apo-Tf / Kd / fa (fraction of fluorophore accessible to the quencher), Apo-Tf / Ksv* (Stern–Volmer quenching constant), Apo-Tf / quenching effect on apo-Tf fluorescence peak / n2 (Hill Coefficient), Apo-Tf: apo-Tf 1 µM; for Ka (association binding constant), Apo-Tf / n1 (Number of Binding Sites), Apo-Tf / Kd / fa (fraction of fluorophore accessible to the quencher), Apo-Tf / Kq (bimolecular quenching constant), Apo-Tf / n2 (Hill Coefficient), Apo-Tf: 298 K; for fa (fraction of fluorophore accessible to the quencher), Apo-Tf / Ksv* (Stern–Volmer quenching constant), Apo-Tf: compound 0–8 µM; for Ksv* (Stern–Volmer quenching constant), Apo-Tf: Tris-HCl pH 7.4, 298 K; for quenching effect on apo-Tf fluorescence peak: compound up to 8 µM; for Kq (bimolecular quenching constant), Apo-Tf: from Ksv* with τ0 = 10^−8 s
T2 construct: purchased Sigma-Aldrich Chemical Co. (Schnelldorf, Germany)
Description: as §4, §5, §6, §7, §8, §9, §10, §11, §12

[4] = read-out: Kd (dissociation constant), HSA
[5] = read-out: Kd (dissociation constant), Apo-Tf

T1 sequence (P02768 25-609): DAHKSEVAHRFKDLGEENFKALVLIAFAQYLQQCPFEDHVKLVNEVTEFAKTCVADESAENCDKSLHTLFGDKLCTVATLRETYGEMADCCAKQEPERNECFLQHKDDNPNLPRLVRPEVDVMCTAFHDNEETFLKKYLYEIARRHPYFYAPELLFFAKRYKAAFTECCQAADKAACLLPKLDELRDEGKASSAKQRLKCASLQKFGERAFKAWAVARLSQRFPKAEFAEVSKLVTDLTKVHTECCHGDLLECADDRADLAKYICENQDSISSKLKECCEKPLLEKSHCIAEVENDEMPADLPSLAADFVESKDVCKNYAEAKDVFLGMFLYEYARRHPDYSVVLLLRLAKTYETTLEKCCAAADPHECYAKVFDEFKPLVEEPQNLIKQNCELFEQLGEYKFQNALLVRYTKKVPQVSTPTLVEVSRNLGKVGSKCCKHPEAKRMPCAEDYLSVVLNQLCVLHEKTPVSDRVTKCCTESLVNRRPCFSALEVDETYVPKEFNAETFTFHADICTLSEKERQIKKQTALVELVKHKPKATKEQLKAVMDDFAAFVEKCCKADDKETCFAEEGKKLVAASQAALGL
T2 sequence (P02787 20-698): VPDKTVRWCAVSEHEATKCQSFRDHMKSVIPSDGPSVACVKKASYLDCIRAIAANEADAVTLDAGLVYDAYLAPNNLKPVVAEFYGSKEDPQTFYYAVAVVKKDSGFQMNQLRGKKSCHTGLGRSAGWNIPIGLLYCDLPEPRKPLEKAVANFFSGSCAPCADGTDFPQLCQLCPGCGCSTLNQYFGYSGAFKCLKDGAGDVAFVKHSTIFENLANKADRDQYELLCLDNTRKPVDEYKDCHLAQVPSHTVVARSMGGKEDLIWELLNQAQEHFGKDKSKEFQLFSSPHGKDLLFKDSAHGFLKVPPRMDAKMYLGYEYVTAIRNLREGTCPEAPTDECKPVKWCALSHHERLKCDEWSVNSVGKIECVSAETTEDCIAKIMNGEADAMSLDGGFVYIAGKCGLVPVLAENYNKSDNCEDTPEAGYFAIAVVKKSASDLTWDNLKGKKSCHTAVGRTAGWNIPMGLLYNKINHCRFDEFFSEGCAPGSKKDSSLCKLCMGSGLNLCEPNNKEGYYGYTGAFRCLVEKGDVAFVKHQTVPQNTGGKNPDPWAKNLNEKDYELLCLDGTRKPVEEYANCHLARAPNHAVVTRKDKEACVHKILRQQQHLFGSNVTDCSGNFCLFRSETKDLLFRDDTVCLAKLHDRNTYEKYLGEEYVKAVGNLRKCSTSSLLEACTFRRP

| SMILES | IC50 [1] | IC50 (μM) LoVo [1] | Ka (association binding constant), HSA [2] | n1 (Number of Binding Sites), HSA [2] | n2 (Hill Coefficient), HSA [2] | Kd [2, 4] | fa (fraction of fluorophore accessible to the quencher), HSA [2] | Ksv* (Stern–Volmer quenching constant), HSA [2] | quenching effect on HSA fluorescence peak [2] | IC50 [3] | EB Displacement Assay K50 (half maximum binding constant) (EB–DNA system (CT-DNA)) | KSV, Stern–Volmer quenching constant (EB–DNA) (EB–DNA system (CT-DNA)) | Ka (association binding constant), Apo-Tf (apotransferrin (apo-Tf)) | n1 (Number of Binding Sites), Apo-Tf (apotransferrin (apo-Tf)) | Kd (apotransferrin (apo-Tf); [5]) | fa (fraction of fluorophore accessible to the quencher), Apo-Tf (apotransferrin (apo-Tf)) | Ksv* (Stern–Volmer quenching constant), Apo-Tf (apotransferrin (apo-Tf)) | quenching effect on apo-Tf fluorescence peak (apotransferrin (apo-Tf)) | Kq (bimolecular quenching constant), Apo-Tf (apotransferrin (apo-Tf)) | Kq (bimolecular quenching constant), HSA [2] | also measured |
| --- | --- | --- | --- | --- | --- | --- | --- | --- | --- | --- | --- | --- | --- | --- | --- | --- | --- | --- | --- | --- | --- |
| CCn1cc(C(=O)[O-])c(=O)c2ccc(C)nc21.CCn1cc(C(=O)[O-])c(=O)c2ccc(C)nc21.O.O.O.O.[Eu+3].[OH-] [Eu(nal)2, Eu(C12H11N2O3)2(OH)(H2O)·3H2O] | > 200 µM | not toxic | (11.99 ± 1.38) × 10^5 M^−1 | 1.13 ± 0.01 | 1.14 ± 0.27 | 4.63 ± 0.97 µM | 1.17 ± 0.04 | (1.75 ± 0.11) × 10^5 M^−1 | 67% | > 200 µM | 34.75 ± 3.69 µM | 8.35 ± 0.13 M^−1 (×10^3) | (1.02 ± 0.13) × 10^4 M^−1 | 0.80 ± 0.01 | 7.07 ± 6.13 µM | 0.71 ± 0.01 | (1.85 ± 0.06) × 10^5 M^−1 | 41% | 1.85e+13 M⁻¹ s⁻¹ | – | – |
| CCn1cc(C(=O)O)c(=O)c2ccc(C)nc21 [Nalidixic acid] | – | not toxic | – | 1.03 ± 0.01 | 1.33 ± 0.29 | 5.69 ± 1.44 µM | 1.06 ± 0.02 | (1.25 ± 0.06) × 10^5 M^−1 | – | – | 50.41 ± 9.60 µM | 9.87 ± 0.11 M^−1 (×10^3) | – | 0.79 ± 0.02 | 6.55 ± 2.11 µM | 0.48 ± 0.03 | (1.02 ± 0.09) × 10^5 M^−1 | – | 1.02e+13 M⁻¹ s⁻¹ | 1.25e+13 M⁻¹ s⁻¹ | IC50 ([1]; Homo sapiens): > 200 µM; Kd ([2]; read-out: Ka (association binding constant), HSA): 4.57 µM; IC50 ([3]; Homo sapiens): > 200 µM; n2 (Hill Coefficient), Apo-Tf (apotransferrin (apo-Tf)): 1.55 ± 0.37; Kd (apotransferrin (apo-Tf); read-out: Ka (association binding constant), Apo-Tf): 323 µM |
| CCn1cc(C(=O)[O-])c(=O)c2ccc(C)nc21.CCn1cc(C(=O)[O-])c(=O)c2ccc(C)nc21.O.O.O.O.[OH-].[Sm+3] [Sm(nal)2, Sm(C12H11N2O3)2(OH)(H2O)·3H2O] | 92.4 ± 16 µM | – | (8.25 ± 1.62) × 10^5 M^−1 | 1.08 ± 0.01 | 1.34 ± 0.09 | 3.6 ± 0.11 µM | 1.05 ± 0.02 | (2.50 ± 0.12) × 10^5 M^−1 | ~ 73% | > 200 µM | 31.35 ± 4.21 µM | 10.24 ± 0.22 M^−1 (×10^3) | (10.17 ± 6.14) × 10^4 M^−1 | 1.01 ± 0.05 | 6.16 ± 1.27 µM | 0.79 ± 0.02 | (1.16 ± 0.06) × 10^5 M^−1 | 35% | 1.16e+13 M⁻¹ s⁻¹ | 2.5e+13 M⁻¹ s⁻¹ | n2 (Hill Coefficient), Apo-Tf (apotransferrin (apo-Tf)): 1.71 ± 0.31 |
| CCn1cc(C(=O)[O-])c(=O)c2ccc(C)nc21.CCn1cc(C(=O)[O-])c(=O)c2ccc(C)nc21.O.[OH-].[Tb+3] [Tb(nal)2, Tb(C12H11N2O3)2(OH)(H2O)·1.5H2O] | > 200 µM | not toxic | (11.52 ± 2.87) × 10^5 M^−1 | 1.12 ± 0.02 | 1.52 ± 0.09 | 3.99 ± 0.14 µM | 1.13 ± 0.02 | (1.92 ± 0.08) × 10^5 M^−1 | – | > 200 µM | 34.69 ± 11.18 µM | 9.14 ± 0.16 M^−1 (×10^3) | (0.32 ± 0.08) × 10^4 M^−1 | 0.71 ± 0.02 | 8.01 ± 4.3 µM | 0.65 ± 0.02 | (2.23 ± 0.15) × 10^5 M^−1 | – | 2.23e+13 M⁻¹ s⁻¹ | 1.92e+13 M⁻¹ s⁻¹ | – |
